Experimental data: PMC11530130, “Peripherally restricted PICK1 inhibitor mPD5 ameliorates pain behaviors in murine inflammatory and neuropathic pain models” (JCI Insight, 2024)
Where “and” joins values, the source holds several entries; their conditions need not be identical. Equal values may be shown once.

Test: Small-angle x-ray scattering (SAXS), core-shell micelle model
Assay type: physicochemical
Protocol: Peripherally restricted PICK1 inhibitor mPD5 ameliorates pain behaviors in murine inflammatory and neuropathic pain models.
SUPPORTING INFORMATION: Supplemental Table 1+2.
Supplemental Table 1. SAXS data collection and fitting table.
Buffer 50 mM Tris, 125 mM NaCl, pH 7.4
Extinction coefficient 11 000 M-1 cm-1
Molecular weight 1874 g/mol
Peptide concentration 0.19 - 9.37 mg/ml
SAXS data collection details
Instrument P12, Petra III, DESY [1]
Absolute calibration Water
Indirect Fourier Bayersapp.org transformations to obtain
Data rebin WillItRebin [4] […]
nmolec-hydrophilic [Å3] 2012 nmolec-hydrophobic [Å3] 377
Rtotal [Å] 22.6 (corresponding to a hydrophilic shell thickness of Dshell=10.4 Å) […]
[1] C. E. Blanchet, A. Spilotros, F. Schwemmer, M. A. Graewert, A. Kikhney, C. M. Jeffries, D. Franke, D. Mark, R. Zengerle, F.
Cipriani, S. Fiedler, M. Roessle, D. I. Svergun, J Appl Crystallogr 2015, 48, 431.
[2] S. Hansen, Journal of Applied Crystallography 2012, 45, 566.
[3] S. Hansen, Journal of Applied Crystallography 2014, 47, 1469.
[4] WillItFit MC Pedersen 2013. […]
Small Angle X-ray Scattering (SAXS).
Concentration series of mPD5 ranging from […] to 9.37 mg/mL was prepared in buffer containing 50 mM Tris-HCl (pH 7.4) and 125 mM NaCl. Samples were measured at the P12 SAXS Beamline, PetraIII, DESY, Hamburg Germany (2). Initial data processing including radial averaging and conversion of the data into absolute scaled scattering intensity, I(q), as a function of the scattering vector q, where q= 4π sin(θ)/λ (θ = half scattering angle, λ = x-ray wave length) was done using the standard software, procedures and settings at the beamline (2). The processed scattering data was merged, buffer subtracted, and binned using WillItRebin with a binning factor of 1.02. The modelling of the SAXS data was performed using a molecular constrained core-shell model for polydisperse spherical micelles. In brief, it was assumed that the peptide aggregated into polydisperse spherical micelles. Here, the hydrophobic tails form the core, and these are surrounded by the hydrophilic part (the shell) in a spherical micelle. For the modelling, total scattering lengths of 2.26e-10 cm and 2.96e-11 cm were used for the headgroups and tail, respectively. These were calculated by multiplying the […]
electrons) by the scattering length of the electron which is just the classical electron radium of 2.82 fm. For the scattering length density calculations, it was assumed that the molecular volume of the C13 alkyl chain,nmolec-hydrophobic, was 377 Å3 as estimated by Tanfords empirical formula (V = 27.4 + 26.9n!) where nC denotes the number of carbons. i.e. 13 in this case (3).
The hydrophilic headgroup,nmolec-hydrophilic, was as a first estimate assumed to have a mass density corresponding to that of a soluble protein (i.e. 1.35 g/cm3), this yielded a molecular volume of 2078 Å3. This value was then taken as a free parameter in the fits and refined to a molecular volume of ~2010 Å3 corresponding to a mass density of 1.39 g/cm3 and with very little variation over the fits to the different sample concentrations. Excess scattering length densities of the core and shell of the micelle were then calculated in relation to the scattering length density of water (9.4e10 1/cm2). Using this molecular constrained model, the volumes of the core and of the shell were coupled internally through the fitted aggregation number, Nagg and the implicit […]
The relative polydispersity, srelative was described by a Gauss function of Nagg. The Gauss was truncated at ±3s. Through the fits, this value is refined to srelative values of the aggregation number at ~30% for the highest concentrations to up to 50% for the lowest concentrations. Note, however, that this variation in the particle volume translates to about 10%-15% variation of the particle radius. A full overview of the resulting fit-parameters is provided in Supplemental Table S1. As usual a small surface roughness (typical at the order of 2Å) and a small constant background were also […]

[1] = SAXS pair-distance distribution p(r)
[2] = spherical core-shell model fit, average

## CCCCCCCCCCCCCC(=O)N(CCOCCOCCC(=O)N[C@@H](Cc1c[nH]cn1)C(=O)N[C@@H](Cc1c[nH]c2ccccc12)C(=O)N[C@@H](CC(C)C)C(=O)N[C@@H](CCCCN)C(=O)N[C@H](C(=O)O)C(C)C)CCOCCOCCC(=O)N[C@@H](Cc1c[nH]cn1)C(=O)N[C@@H](Cc1c[nH]c2ccccc12)C(=O)N[C@@H](CC(C)C)C(=O)N[C@@H](CCCCN)C(=O)N[C@H](C(=O)O)C(C)C [mPD5, myristoyl-NPEG4-(HWLKV)2]
[1]
  Dmax: approximately 50 Å
  radius of gyration (Rg): approximately 30 Å
Five samples of the series 0.19 - 9.37 mg/ml, concentration of each column not given
  Nagg, core shell model fit of single samples: 18.7 and 21.5 and 22.2 and 21.0 and 19.0
[2]
  hydrophobic core radius (Rcore): 12.2 Å
  shell thickness (Dshell): 10.4 Å
  total radius (Rtotal): 22.6 Å
